From ChEMBL document CHEMBL3045926, “Exacerbative role of vitamn A on radiation damage in vivo” (2008)

Assays:
Type in all cases: functional
Cavia porcellus [1] = assay: (§1) Antioxidant activity against gamma irradiation-induced ROS production in Cavia porcellus (guinea pig) liver assessed as nitric oxide level at 50 U/Kg, ip administered 2 days prior to irradiation-challenge measured after 30 min by ESR spectroscopic analysis (reference value: 0.3 +/- 0.08 a.u)
Cavia porcellus [2] = assay: as §1, with “thiobarbituric acid reactive substance” for “nitric oxide”, “level per g tissue” for “level”, “by” for “by ESR”, “168.75” for “0.3”, “12.54 nmol per g tissue)” for “0.08 a.u)”
Cavia porcellus [3] = assay: as §1, with “superoxide dismutase” for “nitric oxide”, “level per mg protein” for “level”, “by” for “by ESR”, “8.72” for “0.3”, “1.94 U per mg protein)” for “0.08 a.u)”
Cavia porcellus [4] = assay: as §1, with “glutathione peroxidase” for “nitric oxide”, “level per mg protein” for “level”, “by” for “by ESR”, “0.76” for “0.3”, “0.06 U per mg protein)” for “0.08 a.u)”

SMILES: CC1=C(/C=C/C(C)=C/C=C/C(C)=C/CO)C(C)(C)CCC1 [RETINOL]
- Activity (Cavia porcellus [1]): 1.04 a.u.
- Activity (Cavia porcellus [2]): 197 nmol/g
- Activity (Cavia porcellus [3]): 6.66 U/mg
- Activity (Cavia porcellus [4]): 0.39 U/mg
